According to US9340590B2 (priority 2011, dated 2016):
Where two headings read alike, the source gives them in different places.

Assays:
Assay in all cases: cell-based
hNav1.3 = hNav1.3 (Homo sapiens, UniProt Q9NY46); conditions: IonWorks Quattro, use-dependent protocol, hNav1.3; read-out: IWQ Use Nav1.3
hNav1.7 = hNav1.7 (Homo sapiens, UniProt Q15858); format: cell-based; conditions: IonWorks Quattro, use-dependent protocol, hNav1.7; read-out: IWQ Use Nav1.7
hNav1.5 = hNav1.5 (Homo sapiens, UniProt Q14524)
[1] = IonWorks Quattro, use-dependent protocol, hNav1.5, read-out: IWQ Use Nav1.5

Sequence of hNav1.5 (Q14524 whole entry, looked up): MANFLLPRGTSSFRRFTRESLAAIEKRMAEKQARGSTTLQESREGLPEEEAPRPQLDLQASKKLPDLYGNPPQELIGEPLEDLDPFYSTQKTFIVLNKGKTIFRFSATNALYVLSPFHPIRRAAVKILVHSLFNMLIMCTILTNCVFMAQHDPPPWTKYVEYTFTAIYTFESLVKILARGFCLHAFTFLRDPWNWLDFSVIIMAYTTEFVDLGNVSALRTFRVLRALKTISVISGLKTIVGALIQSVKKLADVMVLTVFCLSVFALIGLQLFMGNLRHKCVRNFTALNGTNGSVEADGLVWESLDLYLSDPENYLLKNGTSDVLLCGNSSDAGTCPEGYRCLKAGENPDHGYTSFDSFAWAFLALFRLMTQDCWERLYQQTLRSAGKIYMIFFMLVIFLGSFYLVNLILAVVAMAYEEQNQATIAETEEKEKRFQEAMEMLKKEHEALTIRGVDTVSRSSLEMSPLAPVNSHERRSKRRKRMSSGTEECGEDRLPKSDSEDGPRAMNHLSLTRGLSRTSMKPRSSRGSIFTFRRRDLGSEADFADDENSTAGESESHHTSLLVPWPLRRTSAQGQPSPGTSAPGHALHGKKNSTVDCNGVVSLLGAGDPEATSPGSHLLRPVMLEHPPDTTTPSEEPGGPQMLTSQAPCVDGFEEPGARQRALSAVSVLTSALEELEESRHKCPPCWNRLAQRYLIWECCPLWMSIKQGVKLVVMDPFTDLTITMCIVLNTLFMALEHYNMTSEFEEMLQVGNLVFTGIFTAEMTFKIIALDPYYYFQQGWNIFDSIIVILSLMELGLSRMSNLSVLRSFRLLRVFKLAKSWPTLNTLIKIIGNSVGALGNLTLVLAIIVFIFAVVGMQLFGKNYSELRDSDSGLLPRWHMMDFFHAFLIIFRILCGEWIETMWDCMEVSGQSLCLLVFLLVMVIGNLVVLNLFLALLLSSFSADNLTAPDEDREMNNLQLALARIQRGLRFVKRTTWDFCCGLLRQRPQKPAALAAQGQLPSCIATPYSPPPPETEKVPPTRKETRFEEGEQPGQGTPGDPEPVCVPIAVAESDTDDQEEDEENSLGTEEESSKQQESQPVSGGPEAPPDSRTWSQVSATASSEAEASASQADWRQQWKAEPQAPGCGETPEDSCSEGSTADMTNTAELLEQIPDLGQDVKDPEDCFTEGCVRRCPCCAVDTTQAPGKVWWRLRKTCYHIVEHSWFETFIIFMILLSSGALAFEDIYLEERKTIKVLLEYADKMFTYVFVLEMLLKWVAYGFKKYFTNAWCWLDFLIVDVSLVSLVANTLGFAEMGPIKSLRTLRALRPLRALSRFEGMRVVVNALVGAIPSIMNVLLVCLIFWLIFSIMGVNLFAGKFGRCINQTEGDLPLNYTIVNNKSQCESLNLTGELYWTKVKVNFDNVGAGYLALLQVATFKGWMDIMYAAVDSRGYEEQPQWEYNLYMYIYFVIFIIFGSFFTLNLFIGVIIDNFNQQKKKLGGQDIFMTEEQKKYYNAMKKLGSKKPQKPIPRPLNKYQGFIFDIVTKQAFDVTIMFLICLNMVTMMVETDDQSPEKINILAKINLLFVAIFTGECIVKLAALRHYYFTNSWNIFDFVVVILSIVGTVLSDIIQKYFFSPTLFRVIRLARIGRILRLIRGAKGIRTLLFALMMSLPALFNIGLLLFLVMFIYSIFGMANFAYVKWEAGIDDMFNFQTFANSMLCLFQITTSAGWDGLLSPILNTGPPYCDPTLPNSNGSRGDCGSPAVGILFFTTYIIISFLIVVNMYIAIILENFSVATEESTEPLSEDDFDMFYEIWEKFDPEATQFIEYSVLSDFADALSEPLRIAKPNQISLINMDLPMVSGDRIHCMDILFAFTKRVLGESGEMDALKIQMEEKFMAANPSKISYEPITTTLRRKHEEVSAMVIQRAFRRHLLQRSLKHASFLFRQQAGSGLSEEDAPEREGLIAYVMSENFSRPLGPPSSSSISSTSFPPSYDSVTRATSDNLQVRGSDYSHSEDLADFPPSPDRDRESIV
Sequence of hNav1.3 (Q9NY46 whole entry, looked up): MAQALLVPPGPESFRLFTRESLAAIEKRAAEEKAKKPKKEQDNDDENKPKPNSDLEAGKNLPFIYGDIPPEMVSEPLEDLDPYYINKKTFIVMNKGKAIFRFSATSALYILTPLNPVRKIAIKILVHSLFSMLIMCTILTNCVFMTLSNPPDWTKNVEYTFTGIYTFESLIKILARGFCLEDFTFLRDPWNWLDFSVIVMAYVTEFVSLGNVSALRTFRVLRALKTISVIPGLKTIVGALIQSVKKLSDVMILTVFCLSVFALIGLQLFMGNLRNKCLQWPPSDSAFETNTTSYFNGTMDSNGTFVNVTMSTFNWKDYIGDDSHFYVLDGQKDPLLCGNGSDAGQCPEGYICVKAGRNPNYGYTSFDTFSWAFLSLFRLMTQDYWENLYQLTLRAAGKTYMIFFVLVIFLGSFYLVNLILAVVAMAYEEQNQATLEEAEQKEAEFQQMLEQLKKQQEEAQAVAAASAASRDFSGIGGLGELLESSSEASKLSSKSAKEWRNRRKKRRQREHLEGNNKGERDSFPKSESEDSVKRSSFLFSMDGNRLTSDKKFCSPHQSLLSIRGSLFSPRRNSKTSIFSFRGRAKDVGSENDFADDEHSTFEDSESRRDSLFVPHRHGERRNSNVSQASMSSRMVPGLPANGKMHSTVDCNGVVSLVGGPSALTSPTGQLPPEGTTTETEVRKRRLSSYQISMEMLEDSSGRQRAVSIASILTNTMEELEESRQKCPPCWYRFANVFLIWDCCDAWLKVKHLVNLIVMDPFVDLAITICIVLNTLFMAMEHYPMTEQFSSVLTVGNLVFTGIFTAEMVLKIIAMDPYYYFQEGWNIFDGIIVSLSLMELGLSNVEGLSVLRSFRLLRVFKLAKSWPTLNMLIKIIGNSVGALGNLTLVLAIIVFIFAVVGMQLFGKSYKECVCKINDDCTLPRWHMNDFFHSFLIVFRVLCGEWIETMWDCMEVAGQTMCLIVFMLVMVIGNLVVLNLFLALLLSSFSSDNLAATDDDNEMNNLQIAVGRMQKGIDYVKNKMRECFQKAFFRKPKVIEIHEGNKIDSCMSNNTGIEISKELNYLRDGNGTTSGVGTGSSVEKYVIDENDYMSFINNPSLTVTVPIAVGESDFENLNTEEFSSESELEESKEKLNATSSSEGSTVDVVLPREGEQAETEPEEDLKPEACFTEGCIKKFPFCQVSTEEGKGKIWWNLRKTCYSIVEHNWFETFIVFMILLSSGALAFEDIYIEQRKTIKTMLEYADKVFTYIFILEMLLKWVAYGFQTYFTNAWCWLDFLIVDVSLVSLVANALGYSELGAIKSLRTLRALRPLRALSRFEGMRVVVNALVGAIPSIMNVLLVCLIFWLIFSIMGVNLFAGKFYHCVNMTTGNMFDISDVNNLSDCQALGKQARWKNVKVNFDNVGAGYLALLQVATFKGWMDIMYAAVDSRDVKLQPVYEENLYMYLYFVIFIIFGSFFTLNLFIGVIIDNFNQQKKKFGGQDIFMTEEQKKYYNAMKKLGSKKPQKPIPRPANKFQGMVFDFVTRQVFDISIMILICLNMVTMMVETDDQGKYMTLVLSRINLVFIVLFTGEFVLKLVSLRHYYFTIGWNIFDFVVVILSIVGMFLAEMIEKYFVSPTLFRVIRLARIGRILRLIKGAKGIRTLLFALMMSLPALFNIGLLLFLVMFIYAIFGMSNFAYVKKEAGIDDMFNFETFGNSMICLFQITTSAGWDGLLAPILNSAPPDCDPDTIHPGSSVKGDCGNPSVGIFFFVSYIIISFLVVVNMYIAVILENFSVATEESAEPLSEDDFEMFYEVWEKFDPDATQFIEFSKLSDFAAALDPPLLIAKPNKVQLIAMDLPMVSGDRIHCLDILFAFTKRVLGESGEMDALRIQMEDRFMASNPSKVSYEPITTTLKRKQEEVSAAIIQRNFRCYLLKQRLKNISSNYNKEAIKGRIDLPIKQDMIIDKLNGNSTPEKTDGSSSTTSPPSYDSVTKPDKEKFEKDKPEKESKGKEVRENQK

| SMILES | IC50 (hNav1.3) [nM] | IC50 (hNav1.7) [nM] | IC50 (hNav1.5; [1]) [nM] | IC50 (hNav1.5; IWQ Use Nav1.5) [nM] |
| --- | --- | --- | --- | --- |
| CC[C@H](C)[C@@H]1NC(=O)[C@@H]2CSSC[C@@H]3NC(=O)[C@H](C(C)C)NC(=O)[C@H](CC(C)C)NC(=O)[C@H](CC(N)=O)NC(=O)[C@@H]4CCCN4C(=O)[C@H](CCCNC(=N)N)NC(=O)[C@H](CSSC[C@H](NC(=O)[C@@H](N)CC(=O)O)C(=O)N[C@@H](CC(C)C)C(=O)NCC(=O)N(C)[C@@H](C(C)C)C(=O)N[C@@H](CC(C)C)C(=O)N[C@@H](CCCNC(=N)N)C(=O)N[C@@H](CCCCN)C(=O)N2)NC(=O)[C@H](CSSC[C@@H](C(=O)N[C@@H](CCCCN)C(=O)N[C@@H](Cc2ccc(O)cc2)C(=O)N[C@H](C(=O)N[C@@H](Cc2ccccc2)C(N)=O)C(C)C)NC(=O)[C@H](Cc2c[nH]c4ccccc24)NC(=O)[C@H](CCCCN)NC(=O)[C@H](Cc2c[nH]cn2)NC(=O)[C@H]([C@@H](C)O)NC(=O)[C@H](CCCNC(=N)N)NC(=O)[C@H](CO)NC3=O)NC(=O)[C@H](CCCCN)NC(=O)[C@H](CC(=O)O)NC(=O)[C@H](CC(N)=O)NC(=O)[C@H](CC(=O)O)NC(=O)[C@@H]2CCCN2C1=O [compound 672] | 750 | 470 | > 5000 | – |
| CC[C@H](C)[C@@H]1NC(=O)[C@@H]2CSSC[C@@H]3NC(=O)[C@H](C(C)C)NC(=O)[C@H](CC(C)C)NC(=O)[C@H](CC(N)=O)NC(=O)[C@@H]4CCCN4C(=O)[C@H](CCCNC(=N)N)NC(=O)[C@H](CSSC[C@H](NC(=O)[C@@H](N)CC(=O)O)C(=O)N[C@@H](CC(C)C)C(=O)NCC(=O)N(C)[C@@H](CC(C)C)C(=O)N[C@@H](CC(C)C)C(=O)N[C@@H](CCCNC(=N)N)C(=O)N[C@@H](CCCCN)C(=O)N2)NC(=O)[C@H](CSSC[C@@H](C(=O)N[C@@H](CCCCN)C(=O)N[C@@H](Cc2ccc(O)cc2)C(=O)N[C@H](C(=O)N[C@@H](Cc2ccccc2)C(N)=O)C(C)C)NC(=O)[C@H](Cc2c[nH]c4ccccc24)NC(=O)[C@H](CCCCN)NC(=O)[C@H](Cc2c[nH]cn2)NC(=O)[C@H]([C@@H](C)O)NC(=O)[C@H](CCCNC(=N)N)NC(=O)[C@H](CO)NC3=O)NC(=O)[C@H](CCCCN)NC(=O)[C@H](CC(=O)O)NC(=O)[C@H](CC(N)=O)NC(=O)[C@H](CC(=O)O)NC(=O)[C@@H]2CCCN2C1=O [compound 673] | 690 | 170 | > 5000 | – |
| CC[C@H](C)[C@@H]1NC(=O)[C@@H]2CSSC[C@@H]3NC(=O)[C@H](C(C)C)NC(=O)[C@H](CC(C)C)NC(=O)[C@H](CC(N)=O)NC(=O)[C@@H]4CCCN4C(=O)[C@H](CCCNC(=N)N)NC(=O)[C@H](CSSC[C@H](NC(=O)[C@@H](N)CC(=O)O)C(=O)N[C@@H](CC(C)C)C(=O)NCC(=O)N(C)[C@@H](Cc4ccccc4)C(=O)N[C@@H](CC(C)C)C(=O)N[C@@H](CCCNC(=N)N)C(=O)N[C@@H](CCCCN)C(=O)N2)NC(=O)[C@H](CSSC[C@@H](C(=O)N[C@@H](CCCCN)C(=O)N[C@@H](Cc2ccc(O)cc2)C(=O)N[C@H](C(=O)N[C@@H](Cc2ccccc2)C(N)=O)C(C)C)NC(=O)[C@H](Cc2c[nH]c4ccccc24)NC(=O)[C@H](CCCCN)NC(=O)[C@H](Cc2c[nH]cn2)NC(=O)[C@H]([C@@H](C)O)NC(=O)[C@H](CCCNC(=N)N)NC(=O)[C@H](CO)NC3=O)NC(=O)[C@H](CCCCN)NC(=O)[C@H](CC(=O)O)NC(=O)[C@H](CC(N)=O)NC(=O)[C@H](CC(=O)O)NC(=O)[C@@H]2CCCN2C1=O [compound 674] | 310 | 240 | > 5000 | – |
| CC[C@H](C)[C@@H]1NC(=O)[C@@H]2CSSC[C@@H]3NC(=O)[C@H](C(C)C)NC(=O)[C@H](CC(C)C)NC(=O)[C@H](CC(N)=O)NC(=O)[C@@H]4CCCN4C(=O)[C@H](CCCNC(=N)N)NC(=O)[C@H](CSSC[C@H](NC(=O)[C@@H](N)CC(=O)O)C(=O)N[C@@H](CC(C)C)C(=O)NCC(=O)N[C@@H](Cc4ccccc4Cl)C(=O)N[C@@H](CC(C)C)C(=O)N[C@@H](CCCNC(=N)N)C(=O)N[C@@H](CCCCN)C(=O)N2)NC(=O)[C@H](CSSC[C@@H](C(=O)N[C@@H](CCCCN)C(=O)N[C@@H](Cc2ccc(O)cc2)C(=O)N[C@H](C(=O)N[C@@H](Cc2ccccc2)C(N)=O)C(C)C)NC(=O)[C@H](Cc2c[nH]c4ccccc24)NC(=O)[C@H](CCCCN)NC(=O)[C@H](Cc2c[nH]cn2)NC(=O)[C@H]([C@@H](C)O)NC(=O)[C@H](CCCNC(=N)N)NC(=O)[C@H](CO)NC3=O)NC(=O)[C@H](CCCCN)NC(=O)[C@H](CC(=O)O)NC(=O)[C@H](CC(N)=O)NC(=O)[C@H](CC(=O)O)NC(=O)[C@@H]2CCCN2C1=O [compound 675] | 72 | 66 | > 5000 | – |
| CC[C@H](C)[C@@H]1NC(=O)[C@@H]2CSSC[C@@H]3NC(=O)[C@H](C(C)C)NC(=O)[C@H](CC(C)C)NC(=O)[C@H](CC(N)=O)NC(=O)[C@@H]4CCCN4C(=O)[C@H](CCCNC(=N)N)NC(=O)[C@H](CSSC[C@H](NC(=O)[C@@H](N)CC(=O)O)C(=O)N[C@@H](CC(C)C)C(=O)NCC(=O)N[C@@H](CCc4ccccc4)C(=O)N[C@@H](CC(C)C)C(=O)N[C@@H](CCCNC(=N)N)C(=O)N[C@@H](CCCCN)C(=O)N2)NC(=O)[C@H](CSSC[C@@H](C(=O)N[C@@H](CCCCN)C(=O)N[C@@H](Cc2ccc(O)cc2)C(=O)N[C@H](C(=O)N[C@@H](Cc2ccccc2)C(N)=O)C(C)C)NC(=O)[C@H](Cc2c[nH]c4ccccc24)NC(=O)[C@H](CCCCN)NC(=O)[C@H](Cc2c[nH]cn2)NC(=O)[C@H]([C@@H](C)O)NC(=O)[C@H](CCCNC(=N)N)NC(=O)[C@H](CO)NC3=O)NC(=O)[C@H](CCCCN)NC(=O)[C@H](CC(=O)O)NC(=O)[C@H](CC(N)=O)NC(=O)[C@H](CC(=O)O)NC(=O)[C@@H]2CCCN2C1=O [compound 676] | 61 | 16 | > 5000 | – |
| CCCCCCCC[C@@H]1NC(=O)CNC(=O)[C@H](CC(C)C)NC(=O)[C@@H](NC(=O)[C@@H](N)CC(=O)O)CSSC[C@@H]2NC(=O)[C@@H]3CSSC[C@@H](C(=O)N[C@@H](CCCCN)C(=O)N[C@@H](Cc4ccc(O)cc4)C(=O)N[C@H](C(=O)N[C@@H](Cc4ccccc4)C(N)=O)C(C)C)NC(=O)[C@H](Cc4c[nH]c5ccccc45)NC(=O)[C@H](CCCCN)NC(=O)[C@H](Cc4c[nH]cn4)NC(=O)[C@H]([C@@H](C)O)NC(=O)[C@H](CCCNC(=N)N)NC(=O)[C@H](CO)NC(=O)[C@H](CSSC[C@H](NC(=O)[C@H](CCCCN)NC(=O)[C@H](CCCNC(=N)N)NC(=O)[C@H](CCSC)NC1=O)C(=O)N[C@@H]([C@@H](C)CC)C(=O)N1CCC[C@H]1C(=O)N[C@@H](CC(=O)O)C(=O)N[C@@H](CC(N)=O)C(=O)N[C@@H](CC(=O)O)C(=O)N[C@@H](CCCCN)C(=O)N3)NC(=O)[C@H](C(C)C)NC(=O)[C@H](CC(C)C)NC(=O)[C@H](CC(N)=O)NC(=O)[C@@H]1CCCN1C(=O)[C@H](CCCNC(=N)N)NC2=O [compound 677] | 170 | 170 | – | > 5000 |
| CC[C@H](C)[C@@H]1NC(=O)[C@@H]2CSSC[C@@H]3NC(=O)[C@H](C(C)C)NC(=O)[C@H](CC(C)C)NC(=O)[C@H](CC(N)=O)NC(=O)[C@@H]4CCCN4C(=O)[C@H](CCCNC(=N)N)NC(=O)[C@H](CSSC[C@H](NC(=O)[C@@H](N)CC(=O)O)C(=O)N[C@@H](CC(C)C)C(=O)NCC(=O)N[C@@H](C(C)(C)C)C(=O)N[C@@H](CCSC)C(=O)N[C@@H](CCCNC(=N)N)C(=O)N[C@@H](CCCCN)C(=O)N2)NC(=O)[C@H](CSSC[C@@H](C(=O)N[C@@H](CCCCN)C(=O)N[C@@H](Cc2ccc(O)cc2)C(=O)N[C@H](C(=O)N[C@@H](Cc2ccccc2)C(N)=O)C(C)C)NC(=O)[C@H](Cc2c[nH]c4ccccc24)NC(=O)[C@H](CCCCN)NC(=O)[C@H](Cc2cnc[nH]2)NC(=O)[C@H]([C@@H](C)O)NC(=O)[C@H](CCCNC(=N)N)NC(=O)[C@H](CO)NC3=O)NC(=O)[C@H](CCCCN)NC(=O)[C@H](CC(=O)O)NC(=O)[C@H](CC(N)=O)NC(=O)[C@H](CC(=O)O)NC(=O)[C@@H]2CCCN2C1=O [compound 678] | 1360 | 700 | – | > 5000 |
| CC[C@H](C)[C@@H]1NC(=O)[C@@H]2CSSC[C@@H]3NC(=O)[C@H](C(C)C)NC(=O)[C@H](CC(C)C)NC(=O)[C@H](CC(N)=O)NC(=O)[C@@H]4CCCN4C(=O)[C@H](CCCNC(=N)N)NC(=O)[C@H](CSSC[C@H](NC(=O)[C@@H](N)CC(=O)O)C(=O)N[C@@H](CC(C)C)C(=O)NCC(=O)N[C@@H](CCC(C)C)C(=O)N[C@@H](CCSC)C(=O)N[C@@H](CCCNC(=N)N)C(=O)N[C@@H](CCCCN)C(=O)N2)NC(=O)[C@H](CSSC[C@@H](C(=O)N[C@@H](CCCCN)C(=O)N[C@@H](Cc2ccc(O)cc2)C(=O)N[C@H](C(=O)N[C@@H](Cc2ccccc2)C(N)=O)C(C)C)NC(=O)[C@H](Cc2c[nH]c4ccccc24)NC(=O)[C@H](CCCCN)NC(=O)[C@H](Cc2c[nH]cn2)NC(=O)[C@H]([C@@H](C)O)NC(=O)[C@H](CCCNC(=N)N)NC(=O)[C@H](CO)NC3=O)NC(=O)[C@H](CCCCN)NC(=O)[C@H](CC(=O)O)NC(=O)[C@H](CC(N)=O)NC(=O)[C@H](CC(=O)O)NC(=O)[C@@H]2CCCN2C1=O [compound 679] | 240 | 86 | > 5000 | – |
